Structures can show the parent of a compound that is named as a salt. Where two headings read alike, the source gives them in different places.

Experiment [1] has as its target T1, cGMP-PDE (Homo sapiens, UniProt O76074).
T1 construct: cGMP-PDE was separated from other isozymes in human platelets; from tissue; host or cells: human platelets
Put plainly: cGMP-phosphodiesterase (PDE) Assay (human platelets). The experiment is classed as biochemical. The protocol:
cGMP-phosphodiesterase (PDE) Assay
cGMP-PDE was separated from other isozymes in human platelets by a modification of the method of Thompson et. al. (Cyclic Nucleotide Phosphodiesterase (PDE), in Methods of Enzymatic analysis, Vol 4, p127-234, 1984). In enzyme inhibition assays, the test compounds were dissolved in 10% DMSO and then diluted with assay buffer (50 mM Tris-HCl, pH 8.0, 0.1 mM dithiothreitol, 2 mM EGTA and 10 u/ml snake venom), at final concentrations ranging from 10^-10 to 10^-6 M. Assays were performed at 0.1 μM substrate ([^3 H]-cGMP) concentration, at 30° C. for 10 minutes using enzyme dilutions which gave 10-20% hydrolysis of substrate. Each assay was initiated by addition of substrate and terminated by addition of anion exchange resin (Dowex 1-X8, 25 μg/mg) followed by centrifugation for 10 minutes (3000 rpm, at 4° C.). Radioactivity of supernatant (^3 H-GMP) was assayed by liquid scintillation counting.

For experiment [2], the system named is Vascular smooth muscle cells (vSMCs). Put plainly: vSMC Proliferation ([3H]-thymidine, PDGF-stimulated). The experiment is classed as cell-based, male Wistar rats. As to conditions: Rattus norvegicus, PDGF 10 ng/ml stimulation. The protocol:
Vascular smooth muscle cells (vSMCs) were prepared from explants of the thoracic aorta of 10 week old male Wistar rats by a modification of the method of Ross (J. Cell Biol., 50: 172, 1971). They were cultured in DMEM containing 10% fetal calf serum, 1% penicillin G and 1% streptomycin at 37° C. in a 95% air, 5% CO2 humidified atmosphere. vSMCs were seeded in 24 well plates and cultured in the presence of 10% fetal calf serum for 3 days. Cell growth then was arrested by transfer to serum free DMEA. After 24 hours, each test compound or vehicle was added to medium for 1 hour, and then cells were stimulated by PDGF (10 ng/ml). After 24 hours of additional incubation, [^3 H]-thymidine (1 μCi/ml) was added during the final 4 hours of incubation time, and trichloracetic acid insoluble radioactivity was assayed by liquid scintillation counting.

Experiment [3] deals with aorta (spirally cut strips). Put plainly: Smooth Muscle Relaxant: noradrenaline-contracted rat aorta strips. The arrangement: species or system male Wistar rats. As to conditions: contraction by noradrenaline 1 μM, 37° C. The protocol: The aorta were carefully removed from male Wistar rats, cleaned of fat and extraneous tissue. Spirally cut strips of the aorta were placed in a 25 ml organ bath containing Tyrode solution of the following composition (mM); NaCl, 137; KCl, 2.7; CaCl2, 1.8; NaH2 PO4, 0.4; NaHCO3, 12.0; MgSO4, 1.1; glucose, 5.6. The bath was maintained at 37° C. and bubbled with 95% O2 and 5% CO2. The spirally cut strip was stretched to a resting force of 1.0 g, and the isometric contraction was recorded via a force development transducer on an ink writing recorder. Tissues were equilibrated for 60 minutes before contraction was induced by noradrenaline (NA, 1 μM). The test compounds were cumulatively added to organ bath in increasing concentrations ranging from 10^-8 to 10^-5 M, after maximum stable constriction to NA had been achieved.

The test system of experiment [4] is Cyclosporin nephritis. Put plainly: Cyclosporin Nephritis Model. The experiment is classed as in vivo, Spontaneously hypertensive rats. As to conditions: 3.2 mg/kg orally twice a day for two weeks; cyclosporin 50 mg/kg daily. The protocol: Cyclosporin Nephritis Model
Spontaneously hypertensive rats weighing 250-300 g were used. Cyclosporin dissolved in olive-oil containing 5% ethanol was given orally to the animals in a daily dose 50 mg/kg for 2 weeks. After the last dosing of cyclosporin, 24-hours urine was collected for urinalysis. Blood was withdrawn from the abdominal aorta under ether anesthesia 24 hours after the last dosing of cyclosporin, and plasma was separated by centrifugation for biochemical analysis. The animal were bled to death and kidneys were removed for histopathological examination.
The each test compound (3.2 mg/kg) was dissolved in PEG 400 and given orally by the volume of 1 ml/kg twice a day for two weeks.
Biochemistry and urinalysis: Urine volume, plasma creatinine, urine creatinine, blood urea nitrogen, plasma sodium, urine sodium, plasma potassium and urine potassium, were measured with an autoanalyzer (TBA-20R Toshiba, OM-6020 Daiichi Kagaku).
Histopathology: The kidneys were fixed in phosphate-buffered 10% formalin and its paraffin specimens were prepared and these sections were stained with hematoxylin.

Where [5] appears, read: 0.1 μM [3H]-cGMP, 30° C., 10 minutes, read-out: IC50.

`CCCc1c(C=O)c2ccc(C(=O)NS(=O)(=O)c3ccccc3)cc2n1Cc1ccccc1Cl` [22-(6), 1-(2-Chlorobenzyl)-3-formyl-N-phenylsulfonyl-2-propylindole-6-carboxamide]: the IC50 in experiment [1] and in experiment [2] was less than 100 nM throughout.
On to `CCCc1c(C(=O)C(C)C)c2ccc(C(=O)NOC)cc2n1Cc1ccccc1Cl` [24-(1), 1-(2-Chlorobenzyl)-3-isobutyryl-O-methyl-2-propylindole-6-carbohydroxamic acid], for which the IC50 in experiment [1] and in experiment [2] was less than 100 nM in each case.
In the case of `CCCc1c(C(=O)C(C)C)c2ccc(C(N)=O)cc2n1Cc1ccc(Cl)s1` [27-(5), 1-[(5-Chlorothien-2-yl)methyl]-3-isobutyryl-2-propylindole-6-carboxamide], the IC50 in experiment [1] and in experiment [2] was less than 100 nM each time.
Take `CCCc1c(C(=O)C(C)C)c2ccc(C(N)=O)cc2n1Cc1ccccc1C` [37-(4), 3-Isobutyryl-1-(2-methylbenzyl)-2-propylindole-6-carboxamide]: the IC50 in experiment [1] and in experiment [3] was less than 100 nM in each case.
Turning to `CCCc1c(C(=O)C(C)C)c2ccc(C(N)=O)cc2n1Cc1ccccc1[N+](=O)[O-]` [37-(7), 3-Isobutyryl-1-(2-nitrobenzyl)-2-propylindole-6-carboxamide], the IC50 in experiment [1] and in experiment [3] was less than 100 nM throughout.
On to `CCCc1c(C(=O)C(C)C)c2ccc(C(N)=O)cc2n1Cc1ccc(F)cc1Cl` [37-(9), 1-(2-Chloro-4-fluorobenzyl)-3-isobutyryl-2-propylindole-6-carboxamide], for which the IC50 in experiment [1] and in experiment [3] was less than 100 nM throughout.
As for `COCc1c(C(=O)C(C)C)c2ccc(C(N)=O)cc2n1Cc1ccccc1Cl` [37-(14), 1-(2-Chlorobenzyl)-3-isobutyryl-2-methoxymethylindole-6-carboxamide], the IC50 in experiment [1] and in experiment [2] was less than 100 nM each time.
For the molecule `CCCc1c(C(=O)Cc2ccccc2)c2ccc(C(N)=O)cc2n1Cc1ccccc1Cl` [38-(2), 1-(2-Chlorobenzyl)-3-phenylacetyl-2-propylindole-6-carboxamide], the IC50 in experiment [1] and in experiment [2] was less than 100 nM throughout.
Turning to `N#Cc1ccc2c3c(n(Cc4ccccc4Cl)c2c1)C(=O)CCC3` [67-(2), 9-(2-Chlorobenzyl)-8-oxo-5,6,7,8-tetrahydrocarbazole-2-carbonitrile], the IC50 in experiment [1] (setting [5]) and in experiment [2] was less than 100 nM each time.
Consider `CCCc1c(C(=O)C2CC2)c2ccc(C(N)=O)cc2n1Cc1cc2c(cc1Cl)OCO2` [73-(33), 1-(6-Chloro-3,4-methylenedioxybenzyl)-3-cyclopropanecarbonyl-2-propylindole-6-carboxamide], for which the IC50 in experiment [1] and in experiment [3] was less than 100 nM throughout.
In the case of `CCCc1c(C(=O)C2CCCC2)c2ccc(C(N)=O)cc2n1Cc1ccccc1Cl` [73-(36), 1-(2-Chlorobenzyl)-3-cyclopentanecarbonyl-2-propylindole-6-carboxamide], the IC50 in experiment [1] and in experiment [3] was less than 100 nM throughout.
Turning to `NC(=O)c1ccc2c3c(n(Cc4cc5c(cc4Cl)OCO5)c2c1)C(=O)CCC3` [75-(8), 9-(6-Chloro-3,4-methylenedioxybenzyl)-8-oxo-5,6,7,8-tetrahydrocarbazole-2-carboxamide], the half-inhibitory concentration (IC50) in experiment [1] (setting [5]) and in experiment [3] was less than 100 nM in each case.
As to `CC=Cc1c(C(=O)C(C)C)c2ccc(C(N)=O)cc2n1Cc1ccccc1Cl` [75-(29), 1-(2-Chlorobenzyl)-3-isobutyryl-2-(1-propenyl)indole-6-carboxamide], the half-inhibitory concentration (IC50) in experiment [1] and in experiment [2] was less than 100 nM each time.
`CCC(O)c1c(C(=O)C(C)C)c2ccc(C(N)=O)cc2n1Cc1ccccc1Cl` (centres unmarked) [75-(30), 1-(2-Chlorobenzyl)-2-(1-hydroxypropyl)-3-isobutyrylindole-6-carboxamide]: the IC50 in experiment [1] and in experiment [2] was less than 100 nM each time.
As to `CCCc1c(C(=O)CC)c2ccc(C(N)=O)cc2n1Cc1ccccc1Cl` [Example 9, 1-(2-Chlorobenzyl)-3-propionyl-2-propylindole-6-carboxamide], the IC50 in experiment [1] and in experiment [2] was less than 100 nM each time.
`CCC(=O)c1c(CC)n(Cc2ccccc2Cl)c2cc(C(N)=O)ccc12` [Example 15, 1-(2-Chlorobenzyl) -2-ethyl-3-propionylindole-6-carboxamide]: the IC50 in experiment [1] and in experiment [2] was less than 100 nM each time.
As to `CCC(=O)c1c(CC)c2ccc(C(N)=O)cc2n1Cc1ccccc1Cl` [Example 21, 1-(2-Chlorobenzyl)-3-ethyl-2-propionylindole-6-carboxamide], the IC50 in experiment [1] (setting [5]) was less than 100 nM.
Take `CCCc1c(C(=O)C(C)C)c2ccc(C(=O)NO)cc2n1Cc1ccccc1Cl` [Example 23, 1-(2-chlorobenzyl)-3-isobutyryl-2-propylindole-6-carbohydroxamic acid]: the IC50 in experiment [1] and in experiment [2] was less than 100 nM throughout.
For `CCCc1c(C(=O)C(C)C)c2ccc(C(N)=O)cc2n1Cc1ccc(Cl)cc1` [Example 26, 1-(4-chlorobenzyl)-3-isobutyryl-2-propylindole-6-carboxamide], the IC50 in experiment [1] is less than 100 nM.
As to `CCCc1c(C(=O)C(C)C)c2ccc(C(N)=O)cc2n1Cc1ccccn1` [Example 39, 3-isobutyryl-2-propyl-1-(2-pyridylmethyl)indole-6-carboxamide hydrochloride], the IC50 in experiment [1] was less than 100 nM.
In turn, `CCCc1c(C(=O)C(C)C)c2ccc(NC=O)cc2n1Cc1ccccc1Cl` [Example 58, 1-(2-chlorobenzyl)-6-formamido-3-isobutyryl-2-propylindole] had an IC50 in experiment [1] of less than 100 nM.
Consider `CCCc1c(C(=O)CO)c2ccc(C(N)=O)cc2n1Cc1ccccc1Cl` [Example 60, 1-(2-chlorobenzyl)-3-hydroxyacetyl-2-propylindole-6-carboxamide], for which the IC50 in experiment [1] and in experiment [2] was less than 100 nM each time.
On to `NC(=O)c1ccc2c(C(=O)O)cn(Cc3ccccc3Cl)c2c1` [Example 63, 6-carbamoyl-1-(2-chlorobenzyl)indole-3-carboxylic acid], for which, in experiment [1], the half-maximal inhibitory concentration (IC50) is less than 100 nM.
For the molecule `CCc1c(C(O)C(C)C)c2ccc(C(N)=O)cc2n1Cc1ccccc1Cl` (centres unmarked) [Example 69, 1-(2-Chlorobenzyl)-2-ethyl-3-(1-hydroxy-2-methylpropyl)indole-6-carboxamide], the concentration for half-maximal inhibition (IC50) in experiment [1] (setting [5]) is less than 100 nM.
On the same count and under the same terms, with `CCCc1c(C(C)=NO)c2ccc(C(N)=O)cc2n1Cc1ccccc1Cl` [Example 70, 1-(2-chlorobenzyl)-3-(1-hydroxyiminoethyl)-2-propylindole-6-carboxamide] the figure was less than 100 nM.
On to `CCCc1c([N+](=O)[O-])c2ccc(C(=O)OC)cc2n1Cc1ccccc1Cl` [Example 72, methyl 1-(2-chlorobenzyl)-3-nitro-2-propylindole-6-carboxylate], for which the IC50 in experiment [1] (setting [5]) and in experiment [3] was less than 100 nM throughout.
As for `CCCc1nn(C)c2c(=O)[nH]c(-c3cc(S(=O)(=O)N4CCN(C)CC4)ccc3OCC)nc12` [compound (IX), reference compound], in experiment [4], the “recovery in a measure of blood urea nitrogen” value is “more than 50%” and the “recovery in a measure of creatinine clearance (ml/kg/min)” value is given as “more than 40%”.

For orientation: IC50 means the concentration that gives 50% inhibition.

These data come from patent publication US6069156A, “Indole derivatives as cGMP-PDE inhibitors” (Fujisawa Pharmaceutical Co., Ltd., priority 1995, dated 2000).
